Measurements reported in PubChem BioAssay AID248 (DTP/NCI, 2004).
“And” between values parts separate entries of the source, which are not always exact repeats. Identical values can stand only once. Inconclusive results and toxic doses are left out. Rule as the data show it: active = T/C of 150% or more; inactive = T/C below 125%.

Test system: L1210 leukemia ip in BDF1 mice, survival T/C
Assay: NCI In Vivo Anticancer Drug Screen. Data for tumor model L1210 Leukemia (intraperitoneal) in B6D2F1 (BDF1) mice
Conditions: endpoint: mean survival time, higher = longer survival
Method in brief: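 Ratio derived from survival: compound-dosed mice over vehicle-dosed mice, all bearing a transplantable tumor.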

[1] = dose: 100.0 mg/kg/injection, schedule: Q01DX009 (ip), vehicle: Klucel (hydroxypropylcellulose) (HPC)
[2] = dose: 200.0 mg/kg/injection, schedule: Q01DX009 (ip), vehicle: Klucel (hydroxypropylcellulose) (HPC)
[3] = dose: 400.0 mg/kg/injection, schedule: Q01DX009 (ip), vehicle: Klucel (hydroxypropylcellulose) (HPC)
[4] = dose: 100.0 mg/kg/injection, schedule: Q04DX003 (ip), vehicle: saline with Tween-80
[5] = dose: 200.0 mg/kg/injection, schedule: Q04DX003 (ip), vehicle: saline with Tween-80
[6] = dose: 400.0 mg/kg/injection, schedule: Q04DX003 (ip), vehicle: saline with Tween-80
[7] = dose: 100.0 mg/kg/injection, schedule: Q01DX001 (ip), vehicle: saline
[8] = dose: 200.0 mg/kg/injection, schedule: Q01DX001 (ip), vehicle: saline
[9] = dose: 400.0 mg/kg/injection, schedule: Q01DX001 (ip), vehicle: saline
[10] = dose: 100.0 mg/kg/injection, schedule: Q04DX003 (ip), vehicle: saline
[11] = dose: 200.0 mg/kg/injection, schedule: Q04DX003 (ip), vehicle: saline
[12] = dose: 400.0 mg/kg/injection, schedule: Q04DX003 (ip), vehicle: saline

Measured: T/C

COC1CCCNC1CC(=O)Cn1cnc2cc3c(cc2c1=O)OCO3 (configuration not stated)
inactive: dose: 18.75 mg/kg/injection, schedule: Q01DX009 (ip), vehicle: saline 92 % of control | dose: 37.5 mg/kg/injection, schedule: Q01DX009 (ip), vehicle: saline 111 % of control | dose: 37.5 mg/kg/injection, schedule: Q04DX003 (ip), vehicle: saline 98 % of control | dose: 75.0 mg/kg/injection, schedule: Q01DX001 (ip), vehicle: saline 101 % of control | dose: 75.0 mg/kg/injection, schedule: Q01DX009 (ip), vehicle: saline 93 % of control | dose: 75.0 mg/kg/injection, schedule: Q04DX003 (ip), vehicle: saline 104 % of control | dose: 150.0 mg/kg/injection, schedule: Q01DX001 (ip), vehicle: saline 107 % of control | dose: 150.0 mg/kg/injection, schedule: Q04DX003 (ip), vehicle: saline 100 % of control

CCOC(=O)/C(C#N)=C\c1oc2cc(C)c(C)cc2c1C
inactive: [1] 103 % of control | dose: 100.0 mg/kg/injection, schedule: Q04DX003 (ip), vehicle: Klucel (hydroxypropylcellulose) (HPC) 106 % of control | [2] 99 % of control | dose: 200.0 mg/kg/injection, schedule: Q04DX003 (ip), vehicle: Klucel (hydroxypropylcellulose) (HPC) 101 % of control | [3] 94 % of control | dose: 400.0 mg/kg/injection, schedule: Q04DX003 (ip), vehicle: Klucel (hydroxypropylcellulose) (HPC) 98 % of control

O=C(O)C1C2CCC(O2)C1C(=O)O (configuration not stated)
inactive: dose: 100.0 mg/kg/injection, schedule: Q01DX001 (ip), vehicle: carboxymethylcellulose (CMC) 91 % of control | [4] 100 % of control | dose: 200.0 mg/kg/injection, schedule: Q01DX001 (ip), vehicle: carboxymethylcellulose (CMC) 88 % of control | [5] 96 % of control | [6] 102 % of control

CCOC(=O)c1ccccc1N(O)C(=O)Nc1ccc(Cl)cc1
inactive: [4] 100 % of control | [5] 105 % of control | [6] 103 % of control

Cc1cc(C)c(O)c(C(C)(C)C)c1
inactive: dose: 50.0 mg/kg/injection, schedule: Q04DX003 (ip), vehicle: saline with Tween-80 102 % of control | [4] 101 % of control | [5] 107 % of control

CNC(=S)N/N=C/C(C)=N/NC(=S)NC
inactive: dose: 4.0 mg/kg/injection, schedule: Q01DX Z (ip), vehicle: carboxymethylcellulose (CMC) 102 % of control | dose: 8.0 mg/kg/injection, schedule: Q01DX Z (ip), vehicle: carboxymethylcellulose (CMC) 97 % of control | dose: 10.0 mg/kg/injection, schedule: Q04DX003 (ip), vehicle: saline 98 % of control | dose: 16.0 mg/kg/injection, schedule: Q01DX Z (ip), vehicle: carboxymethylcellulose (CMC) 95 % of control and 103 % of control | dose: 20.0 mg/kg/injection, schedule: Q04DX003 (ip), vehicle: saline 100 % of control | dose: 31.0 mg/kg/injection, schedule: Q01DX Z (ip), vehicle: carboxymethylcellulose (CMC) 95 % of control | dose: 40.0 mg/kg/injection, schedule: Q04DX003 (ip), vehicle: saline 96 % of control | dose: 50.0 mg/kg/injection, schedule: Q01DX001 (ip), vehicle: saline 86 % of control | dose: 62.0 mg/kg/injection, schedule: Q01DX Z (ip), vehicle: carboxymethylcellulose (CMC) 93 % of control and 100 % of control | dose: 80.0 mg/kg/injection, schedule: Q04DX003 (ip), vehicle: saline 93 % of control | [7] 95 % of control | dose: 125.0 mg/kg/injection, schedule: Q01DX Z (ip), vehicle: carboxymethylcellulose (CMC) 90 % of control and 91 % of control | [8] 89 % of control | dose: 250.0 mg/kg/injection, schedule: Q01DX Z (ip), vehicle: carboxymethylcellulose (CMC) 93 % of control | [9] 95 % of control | dose: 500.0 mg/kg/injection, schedule: Q01DX Z (ip), vehicle: carboxymethylcellulose (CMC) 90 % of control | dose: 1000.0 mg/kg/injection, schedule: Q01DX Z (ip), vehicle: carboxymethylcellulose (CMC) 90 % of control | dose: 125.0 micrograms/kg/injection, schedule: Q01DX009 (ip), vehicle: saline 101 % of control | dose: 250.0 micrograms/kg/injection, schedule: Q01DX009 (ip), vehicle: saline 98 % of control | dose: 500.0 micrograms/kg/injection, schedule: Q01DX009 (ip), vehicle: saline 98 % of control | dose: 1000.0 micrograms/kg/injection, schedule: Q01DX009 (ip), vehicle: saline 107 % of control

COc1ccc(/C=N/NC(=O)c2ccc(Cl)cc2)cc1
inactive: dose: 50.0 mg/kg/injection, schedule: Q01DX009 (ip), vehicle: saline with Tween-80 88 % of control | dose: 100.0 mg/kg/injection, schedule: Q01DX009 (ip), vehicle: saline with Tween-80 105 % of control | dose: 200.0 mg/kg/injection, schedule: Q01DX009 (ip), vehicle: saline with Tween-80 91 % of control

O=C1c2ccccc2C(=O)N1c1ncc2ccccc2n1
inactive: dose: 100.0 mg/kg/injection, schedule: Q01DX001 (ip), vehicle: saline with Tween-80 101 % of control | dose: 200.0 mg/kg/injection, schedule: Q01DX001 (ip), vehicle: saline with Tween-80 92 % of control | dose: 400.0 mg/kg/injection, schedule: Q01DX001 (ip), vehicle: saline with Tween-80 95 % of control

O=S(=O)(c1ccc(Cl)cc1)c1ccc(Cl)cc1
inactive: dose: 100.0 mg/kg/injection, schedule: Q01DX009 (ip), vehicle: saline 91 % of control | [4] 102 % of control | [10] 104 % of control | dose: 200.0 mg/kg/injection, schedule: Q01DX009 (ip), vehicle: saline 95 % of control | [5] 107 % of control | [11] 95 % of control | dose: 400.0 mg/kg/injection, schedule: Q01DX009 (ip), vehicle: saline 93 % of control | [6] 95 % of control | [12] 106 % of control

NC(N)=Nc1ccc(OC(=O)c2ccc(N=C(N)N)cc2)cc1
inactive: dose: 25.0 mg/kg/injection, schedule: Q01DX009 (ip), vehicle: water 96 % of control | dose: 50.0 mg/kg/injection, schedule: Q01DX009 (ip), vehicle: water 96 % of control

COC1OC2COc3ccccc3OC2C2C1N2C(C)=O (configuration not stated)
inactive: dose: 100.0 mg/kg/injection, schedule: Q04DX002 (ip), vehicle: Klucel (hydroxypropylcellulose) (HPC) 113 % of control | dose: 200.0 mg/kg/injection, schedule: Q04DX002 (ip), vehicle: Klucel (hydroxypropylcellulose) (HPC) 98 % of control

c1ccc(C2CC([P+](c3ccccc3)(c3ccccc3)c3ccccc3)=NN2)cc1 (configuration not stated)
inactive: dose: 3.12 mg/kg/injection, schedule: Q01DX009 (ip), vehicle: Klucel (hydroxypropylcellulose) (HPC) 103 % of control | dose: 6.25 mg/kg/injection, schedule: Q01DX009 (ip), vehicle: Klucel (hydroxypropylcellulose) (HPC) 120 % of control | dose: 6.25 mg/kg/injection, schedule: Q04DX003 (ip), vehicle: Klucel (hydroxypropylcellulose) (HPC) 110 % of control | dose: 12.5 mg/kg/injection, schedule: Q01DX002 (ip), vehicle: Klucel (hydroxypropylcellulose) (HPC) 114 % of control | dose: 12.5 mg/kg/injection, schedule: Q01DX009 (ip), vehicle: Klucel (hydroxypropylcellulose) (HPC) 92 % of control | dose: 12.5 mg/kg/injection, schedule: Q04DX003 (ip), vehicle: Klucel (hydroxypropylcellulose) (HPC) 108 % of control | dose: 25.0 mg/kg/injection, schedule: Q01DX001 (ip), vehicle: Klucel (hydroxypropylcellulose) (HPC) 104 % of control | dose: 25.0 mg/kg/injection, schedule: Q01DX002 (ip), vehicle: Klucel (hydroxypropylcellulose) (HPC) 104 % of control | dose: 25.0 mg/kg/injection, schedule: Q04DX003 (ip), vehicle: Klucel (hydroxypropylcellulose) (HPC) 108 % of control | dose: 50.0 mg/kg/injection, schedule: Q01DX001 (ip), vehicle: Klucel (hydroxypropylcellulose) (HPC) 97 % of control | dose: 50.0 mg/kg/injection, schedule: Q01DX002 (ip), vehicle: Klucel (hydroxypropylcellulose) (HPC) 97 % of control | dose: 50.0 mg/kg/injection, schedule: Q04DX003 (ip), vehicle: Klucel (hydroxypropylcellulose) (HPC) 97 % of control

CCNC(=O)CCCC(=O)OC
inactive: [7] 94 % of control | [8] 103 % of control | [9] 97 % of control

CN(C)CCCOC(=O)C1C2CC3OC(=O)C1C3C2 (configuration not stated)
inactive: [10] 93 % of control | [11] 96 % of control | [12] 101 % of control

Cc1cccc(C(Cc2ccc(N3C(N)=NC(N)=NC3(C)C)cc2)C(=O)Nc2ccc(S(=O)(=O)F)cc2)c1 (configuration not stated)
inactive: [7] 108 % of control | [8] 110 % of control | [9] 98 % of control

Cc1cccc(NC(=O)c2ccc(Cl)cc2)c1C
inactive: [1] 99 % of control | [10] 111 % of control | [2] 95 % of control | [11] 104 % of control | [3] 95 % of control | [12] 109 % of control
